Results on two molecules are retold here after ChEMBL document CHEMBL4373683, “Dual-target inhibitors of mycobacterial aminoacyl-tRNA synthetases among N-benzylidene-N'-thiazol-2-yl-hydrazines” (Medchemcomm, 2019).

In brackets after ≈: the same amount, converted by molar mass.

In series [1] the target is T1, Leucine--tRNA ligase (Mycobacterium tuberculosis (strain ATCC 25618 / H37Rv)) (UniProt P9WFV1).
T1 sequence (whole entry): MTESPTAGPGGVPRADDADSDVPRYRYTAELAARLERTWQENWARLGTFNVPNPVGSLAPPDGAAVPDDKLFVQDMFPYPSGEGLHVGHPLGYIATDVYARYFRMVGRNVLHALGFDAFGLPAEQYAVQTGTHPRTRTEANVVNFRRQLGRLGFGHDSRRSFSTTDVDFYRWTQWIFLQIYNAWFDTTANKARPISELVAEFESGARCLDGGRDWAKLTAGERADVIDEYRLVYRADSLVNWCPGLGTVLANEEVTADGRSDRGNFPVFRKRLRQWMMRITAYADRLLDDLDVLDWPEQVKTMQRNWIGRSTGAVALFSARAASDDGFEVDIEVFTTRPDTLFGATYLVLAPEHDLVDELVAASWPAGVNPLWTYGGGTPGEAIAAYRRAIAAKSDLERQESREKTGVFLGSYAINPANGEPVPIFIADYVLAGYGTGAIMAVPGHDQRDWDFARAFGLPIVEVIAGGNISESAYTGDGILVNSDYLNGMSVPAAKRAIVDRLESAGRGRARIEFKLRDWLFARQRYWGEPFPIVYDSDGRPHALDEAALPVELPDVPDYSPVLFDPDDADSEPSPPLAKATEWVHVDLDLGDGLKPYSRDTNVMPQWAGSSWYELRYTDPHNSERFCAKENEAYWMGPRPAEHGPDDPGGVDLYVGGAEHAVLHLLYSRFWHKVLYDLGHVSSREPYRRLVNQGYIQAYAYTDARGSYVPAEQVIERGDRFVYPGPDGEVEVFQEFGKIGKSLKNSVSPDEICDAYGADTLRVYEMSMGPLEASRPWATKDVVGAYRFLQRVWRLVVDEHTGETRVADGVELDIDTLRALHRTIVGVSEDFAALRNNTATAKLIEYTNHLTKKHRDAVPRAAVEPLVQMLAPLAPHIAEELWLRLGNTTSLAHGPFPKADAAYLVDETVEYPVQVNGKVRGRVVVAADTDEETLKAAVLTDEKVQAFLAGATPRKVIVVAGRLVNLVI
The series is described as follows: Inhibition of Mycobacterium tuberculosis LeuRS expressed in Escherichia coli Rosetta (DE3) cells at 100 uM incubated for 30 mins followed by incubation with ATP, leucine, tRNA, iPPase for 10 mins and measured after 30 mins by BIOMOL Green reagent based plate reader analysis relative to control.

Series [2] deals with Mycobacterium tuberculosis H37Rv. The series is described as follows: Inhibition of recombinant Mycobacterium tuberculosis H37Rv C-terminal His6-tagged MetRS expressed in Escherichia coli BL21 (DE3) Star cells at 100 uM incubated for 30 mins followed by incubation with ATP, methionine, tRNA, iPPase for 10 mins and measured after 30 mins by BIOMOL Green reagent based plate reader analysis relative to control.

The target of the next series is T2, Leucine--tRNA ligase (Mycobacterium tuberculosis (strain ATCC 25618 / H37Rv), UniProt P9WFV1).
T2 sequence (P9WFV1 whole entry): T1 sequence (whole entry)
The series is described as follows: Inhibition of Mycobacterium tuberculosis LeuRS expressed in Escherichia coli Rosetta (DE3) cells incubated for 30 mins followed by incubation with ATP, leucine, tRNA, iPPase for 10 mins and measured after 30 mins by BIOMOL Green reagent based plate reader analysis.

Series [3] is described as follows: Inhibition of recombinant Mycobacterium tuberculosis H37Rv C-terminal His6-tagged MetRS expressed in Escherichia coli BL21 (DE3) Star cells incubated for 30 mins followed by incubation with ATP, methionine, tRNA, iPPase for 10 mins and measured after 30 mins by BIOMOL Green reagent based plate reader analysis. As to conditions: read-out: IC50.
Series [4] concerns Mycobacterium tuberculosis. Format: functional. As to conditions: H37Rv ATCC 27294, 168 h.
Series [5] relates to Mycobacterium tuberculosis. Format: functional. The conditions noted are these: H37Rv ATCC 27294, 336 h.
Series [6] deals with Mycobacterium tuberculosis. Format: functional. As to conditions: H37Rv ATCC 27294, 168 h. This is another data set of the same source.
In series [7] the test system is Mycobacterium tuberculosis. Format: functional. As to conditions: H37Rv ATCC 27294, 336 h. This is another data set of the same source.
Series [8] relates to Mycobacterium tuberculosis. In kind it is functional. The conditions noted are these: H37Rv ATCC 27294, 168 h. The source holds these as a separate data set.
Series [9] deals with Mycobacterium tuberculosis. In kind it is functional. The conditions noted are these: H37Rv ATCC 27294, 336 h. This is another data set of the same source.
Series [10] deals with Mycobacterium tuberculosis. Format: functional. The conditions noted are these: H37Rv ATCC 27294, 168 h. This is another data set of the same source.
Series [11] has as its system Mycobacterium tuberculosis. Format: functional. The conditions noted are these: H37Rv ATCC 27294, 336 h. The source holds these as a separate data set.
The nature of series [12]: Cytotoxicity against human HEK293 cells assessed as reduction in cell viability incubated for 72 hrs by MTT assay. In kind it is cell-based.
Series [13] in a line: Cytotoxicity against human HepG2 cells assessed as reduction in cell viability incubated for 72 hrs by MTT assay. Format: cell-based.

With `COc1ccc(/C=N/Nc2nc(-c3ccc(F)cc3)cs2)cc1Br`, the inhibition in series [1] was determined as 109%; in series [2], 121%. Further, the values for the IC50 (at Leucine--tRNA ligase; in [3]) were 12.5 µM and 10.7 µM, respectively. The MIC in [4] came to 1.56 µM (≈ 0.634 µg/mL); in series [5], 2.3 µM (≈ 0.934 µg/mL); in series [6] it was 19 µM (≈ 7.72 µg/mL); in series [7], 37 µM (≈ 15 µg/mL); in [8] it was 0.78 µM (≈ 0.317 µg/mL); in series [9], 2.3 µM (≈ 0.934 µg/mL). The MIC came out at 9.4 µM (≈ 3.82 µg/mL) in [10] and 25 µM (≈ 10.2 µg/mL) in [11]. Further, the CC50 at 72 h in series [12] and in series [13] was over 100 µM in each case.

Consider `COc1cc(/C=N/Nc2nc(-c3ccc([N+](=O)[O-])cc3)cs2)cc([N+](=O)[O-])c1O`, for which the inhibition in series [1] was found to be 103%; in [2], 94%. Further, the results for the IC50 (against Leucine--tRNA ligase; in series [3]) were 5.8 µM and 4.2 µM, respectively. The MIC is 50 µM (≈ 20.8 µg/mL) in [4]; at least 50 µM in series [5]; 50 µM (≈ 20.8 µg/mL) in [6]; over 50 µM in series [7]; over 50 µM in [8]; over 50 µM in [9]. The MIC in series [10] is at least 50 µM; in [11] it was over 50 µM.
